The target in test [1] is T1, membrane preparation from rhesus monkey lung (Macaca mulatta, UniProt F7HE88).
T1 construct: from tissue; host or cells: rhesus monkey lung membranes
T1 sequence (F7HE88 33-1061): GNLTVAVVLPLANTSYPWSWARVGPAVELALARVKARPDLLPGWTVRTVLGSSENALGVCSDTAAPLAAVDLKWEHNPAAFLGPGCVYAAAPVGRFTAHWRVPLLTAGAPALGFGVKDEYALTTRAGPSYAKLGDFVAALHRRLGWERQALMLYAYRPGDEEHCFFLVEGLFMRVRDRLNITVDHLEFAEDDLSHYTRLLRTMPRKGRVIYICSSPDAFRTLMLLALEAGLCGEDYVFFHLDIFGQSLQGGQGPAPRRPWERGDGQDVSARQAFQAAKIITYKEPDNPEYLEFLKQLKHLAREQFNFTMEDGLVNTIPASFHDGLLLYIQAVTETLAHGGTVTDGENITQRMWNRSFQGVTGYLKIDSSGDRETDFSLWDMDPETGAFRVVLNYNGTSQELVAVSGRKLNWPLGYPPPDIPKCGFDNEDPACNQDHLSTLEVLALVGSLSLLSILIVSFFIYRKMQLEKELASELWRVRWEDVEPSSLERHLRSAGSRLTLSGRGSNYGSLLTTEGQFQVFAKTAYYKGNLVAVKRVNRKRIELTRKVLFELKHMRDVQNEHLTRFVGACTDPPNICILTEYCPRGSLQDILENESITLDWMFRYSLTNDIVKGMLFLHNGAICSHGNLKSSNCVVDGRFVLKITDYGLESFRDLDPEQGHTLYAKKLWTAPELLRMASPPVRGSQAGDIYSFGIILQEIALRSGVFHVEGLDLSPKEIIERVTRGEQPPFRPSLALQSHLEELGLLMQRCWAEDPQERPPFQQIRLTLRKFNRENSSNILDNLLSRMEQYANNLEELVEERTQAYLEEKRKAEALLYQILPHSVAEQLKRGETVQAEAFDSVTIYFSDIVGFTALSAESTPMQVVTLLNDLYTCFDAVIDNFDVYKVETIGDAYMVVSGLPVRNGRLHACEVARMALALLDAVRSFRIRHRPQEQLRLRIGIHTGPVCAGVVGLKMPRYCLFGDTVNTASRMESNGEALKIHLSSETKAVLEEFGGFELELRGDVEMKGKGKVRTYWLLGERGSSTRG
The test can be described thus: cGMP stimulation of rhesus lung membranes. The settings on record: FIG. 13, rhesus monkey lung membranes. The class given is biochemical. As for the experimental part:
(§1) For preparation of membranes from Rhesus monkey tissues, frozen tissue was placed between parafilm and broken up into pieces by hitting with a hammer. Tissue was transferred to a 125 mL polypropylene tube containing 100 mL of ice-cold buffer #1 (50 mM HEPES, pH 7.4, 1 mM EDTA, 250 mM sucrose, 0.7 mg/mL pepstatin A, 0.5 mg/mL leupeptin, 1 mM PMSF, and 1 mM phosphoramidon). Tissue was homogenized with a Brinkman polytron on a setting of 5 two times for 10 sec. The sample was placed on ice between homogenizations. 11 mL of 30 mM MgCl2/100 mM NaCl containing 1 mM phosphoramidon was added to the homogenate. The homogenate was spun at 400×g for 10 min at 4° C. in a HB-4 rotor. The supernatant was transferred to another tube and spun as above. The supernatant was passed though four layers of sterile gauze then centrifuged at 30,000×g for 20 min at 4° C. in a 60 Ti rotor. The pellet was resuspended in 3-5 mL of buffer #2 (50 mM HEPES, pH 7.4, 0.1 mM EDTA, 5 mM MgCl2, 100 mM NaCl, 0.7 mg/mL pepstatin A, 0.5 mg/mL leupeptin, 1 mM PMSF, and 1 mM phosphoramidon), using a 7 mL Wheaton Dounce with a B pestle. Aliquots were stored at −80° C. […]
(§2) Data analysis. The competition binding curves and cGMP production dose responses were analyzed by the four-parameter logistic equation with the KaleidaGraph™ program (Synergy Software, PA) to obtain estimates of the IC50 or EC50 values. […]

In another test the target is T2, hNPR-C (Homo sapiens, UniProt P17342).
T2 sequence (P17342 27-541): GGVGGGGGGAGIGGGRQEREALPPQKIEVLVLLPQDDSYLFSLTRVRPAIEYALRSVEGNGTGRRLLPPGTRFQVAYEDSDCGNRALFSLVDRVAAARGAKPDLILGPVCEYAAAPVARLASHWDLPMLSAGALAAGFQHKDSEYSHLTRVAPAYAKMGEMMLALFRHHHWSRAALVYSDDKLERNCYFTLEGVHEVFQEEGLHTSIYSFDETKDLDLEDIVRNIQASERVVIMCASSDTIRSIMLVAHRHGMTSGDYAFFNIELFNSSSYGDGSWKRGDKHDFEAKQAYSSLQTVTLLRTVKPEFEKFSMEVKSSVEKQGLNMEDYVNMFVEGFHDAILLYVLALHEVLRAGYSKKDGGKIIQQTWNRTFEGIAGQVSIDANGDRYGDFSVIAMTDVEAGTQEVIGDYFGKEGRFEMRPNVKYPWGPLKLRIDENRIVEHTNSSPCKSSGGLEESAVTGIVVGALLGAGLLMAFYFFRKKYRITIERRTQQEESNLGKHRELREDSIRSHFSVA
The test can be described thus: Competition binding to hNPR-C (Table I, FIG. 5).

For test [2], the system named is rhesus monkey kidney membranes (NPR-A and NPR-C). The test can be described thus: Competition binding in rhesus monkey kidney membranes. The note with it: FIG. 11, rhesus monkey kidney membranes. The procedure: as §1, with “rotor.” for “rotor. The pellet was resuspended in 3-5 mL of buffer #2 (50 mM HEPES, pH 7.4, 0.1 mM EDTA, 5 mM MgCl2, 100 mM NaCl, 0.7 mg/mL pepstatin A, 0.5 mg/mL leupeptin, 1 mM PMSF, and 1 mM phosphoramidon), using a 7 mL Wheaton Dounce with a B pestle. Aliquots were stored at −80° C.”
Membrane competition binding assays. […] The plates were washed six times with PBS, then air dried prior to adding scintillant and counted in a Packard Topcount scintillation counter for 1 min/well. Binding was measured in duplicate for each concentration of competitor.
as §2

The text below walks through data of US6525022B1, “Receptor specific atrial natriuretic peptides” (Genentech, Inc., priority 1993, dated 2003).

Where a SMILES comes first, the peptide text is derived from it. Bridges are numbered along the chain shown (N, C = ends).

In the case of `CC[C@H](C)[C@@H]1NC(=O)[C@H](CCCNC(=N)N)NC(=O)[C@H](CC(=O)O)NC(=O)[C@H]([C@@H](C)CC)NC(=O)[C@H](CO)NC(=O)CNC(=O)[C@H]([C@@H](C)O)NC(=O)[C@H](Cc2ccccc2)NC[C@@H](NC(=O)[C@H](CO)NC(=O)[C@H](CO)NC(=O)[C@H](CCCNC(=N)N)NC(=O)[C@H](CCCNC(=N)N)NC(=O)[C@H](CC(C)C)NC(=O)[C@@H](N)CO)CSSC[C@@H](C(=O)N[C@@H](CC(N)=O)C(=O)N[C@@H](CO)C(=O)N[C@@H](Cc2ccccc2)C(=O)N[C@@H](CCCNC(=N)N)C(=O)N[C@@H](Cc2ccc(O)cc2)C(=O)O)NC(=O)CNC(=O)[C@H](CC(C)C)NC(=O)CNC(=O)[C@H](CO)NC(=O)[C@H](CCC(N)=O)NC(=O)[C@H](C)NC(=O)[C@H](CCCNC(=N)N)NC1=O` [ANF 84], in test [1], the “Potency in stimulation of cGMP production compared with rat ANP” value was “more potent than rat ANP”.

As for `CC[C@H](C)[C@@H]1NC(=O)[C@H](CCCNC(=N)N)NC(=O)[C@H](CC(=O)O)NC(=O)[C@H]([C@@H](C)CC)NC(=O)[C@H](CO)NC(=O)CNC(=O)[C@H]([C@@H](C)O)NC(=O)[C@H](Cc2ccccc2)NC(=O)[C@@H](NC(=O)[C@H](CO)NC(=O)[C@H](CO)NC(=O)[C@H](CCCNC(=N)N)NC(=O)[C@H](CCCNC(=N)N)NC(=O)[C@H](CC(C)C)NC(=O)[C@H](CO)NC(=O)[C@H](CCCNC(=N)N)NC(=O)[C@@H]2CCCN2C(=O)[C@H](C)NC(=O)[C@@H](N)[C@@H](C)O)CSSC[C@@H](C(=O)N[C@@H](CC(N)=O)C(=O)N[C@@H](CO)C(=O)N[C@@H](Cc2ccccc2)C(=O)N[C@@H](CCCNC(=N)N)C(=O)N[C@@H](Cc2ccc(O)cc2)C(=O)O)NC(=O)CNC(=O)[C@H](CC(C)C)NC(=O)CNC(=O)[C@H](CO)NC(=O)[C@H](CCC(N)=O)NC(=O)[C@H](C)NC(=O)[C@H](CCCNC(=N)N)NC1=O` [ANF 76] (H-TAPRSLRRSSCFTGSIDRIRAQSGLGCNSFRY-OH; disulfide 11-27; C-terminus assumed), the “Potency in stimulation of cGMP production compared with rat ANP” value in test [1] is “more potent than rat ANP”. The IC50 at hNPR-C was found to be 10 µM.

Take `CC[C@H](C)[C@@H]1NC(=O)[C@H](CCCNC(=N)N)NC(=O)[C@H](CC(=O)O)NC(=O)[C@H]([C@@H](C)CC)NC(=O)[C@H](CO)NC(=O)CNC(=O)[C@H]([C@@H](C)O)NC(=O)[C@H](Cc2ccccc2)NC(=O)[C@@H](NC(=O)[C@H](CO)NC(=O)[C@H](CO)NC(=O)[C@H](CCCNC(=N)N)NC(=O)[C@H](CCCNC(=N)N)NC(=O)[C@H](CC(C)C)NC(=O)[C@@H](N)CO)CSSC[C@@H](C(=O)N[C@@H](CC(N)=O)C(=O)N[C@@H](CO)C(=O)N[C@@H](Cc2ccccc2)C(=O)N[C@@H](CCCNC(=N)N)C(=O)N[C@@H](Cc2ccc(O)cc2)C(=O)O)NC(=O)CNC(=O)[C@H](CC(C)C)NC(=O)CNC(=O)[C@H](CO)NC(=O)[C@H](CCC(N)=O)NC(=O)[C@H](C)NC(=O)[C@H](CCCNC(=N)N)NC1=O` [ANF 27]: the “Displacement of 125I-rat ANP binding” value in test [2] is recorded as “a smaller portion of the total binding is displaced”.
